Reference: the supplement of paper PMC10307832

Tests used:
Test in all cases: relative viability (nuclei count vs DMSO), 5 days (fraction); higher = more cells survive
[1] = compound: CC1CC(=O)N(C2=CN=C(N=C2N1C3CCCC3)NC4=C(C=C(C=C4)C(=O)NC5CCN(CC5)C)OC)C [NPK76-II-72-1] + Cc1cc(Nc2cc(N3CCN(C)CC3)nc(Sc3ccc(NC(=O)C4CC4)cc3)n2)n[nH]1 [Tozasertib] (partner 0.1 µM)
Procedure, shortened: (§1)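 The day after seeding in 1536-well plates, lung cancer cell lines were treated by pin tool with a single drug, or with a fixed anchor-drug dose together with five library-drug doses (not always all listed) in √10 steps. After 5 days, a combined fix-and-stain solution (final 0.05% Triton X-100, 1% formaldehyde, 1 ug/ml Hoechst) was added. Nuclei counted on 4× images gave relative viability as treated counts over vehicle counts, reported as the median of duplicate plates.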

[2] = compound: CC1CC(=O)N(C2=CN=C(N=C2N1C3CCCC3)NC4=C(C=C(C=C4)C(=O)NC5CCN(CC5)C)OC)C [NPK76-II-72-1] + N=C(N)NC(=N)NCCc1ccccc1 [Phenformin] (partner 250 µM)
Procedure, shortened: as §1

[3] = compound: CC[C@@H]1C(=O)N(C)c2cnc(Nc3ccc(C(=O)NC4CCN(C)CC4)cc3OC)nc2N1C1CCCC1 [BI-2536] + CC(C)C[C@H](NC(=O)[C@H](Cc1ccccc1)NC(=O)c1cnccn1)B(O)O [Bortezomib] (partner 0.002 µM)
Procedure, shortened: as §1

[4] = compound: CC[C@@H]1C(=O)N(C)c2cnc(Nc3ccc(C(=O)NC4CCN(C)CC4)cc3OC)nc2N1C1CCCC1 [BI-2536] + CS(=O)(=O)CCNCc1ccc(-c2ccc3ncnc(Nc4ccc(OCc5cccc(F)c5)c(Cl)c4)c3c2)o1 [Lapatinib] (partner 2 µM)
Procedure, shortened: as §1

Cell Line | relative viability ([1]; first compound 0.01 µM) | relative viability ([1]; first compound 0.03162 µM) | relative viability ([1]; first compound 0.1 µM) | relative viability ([1]; first compound 0.3162 µM) | relative viability ([1]; first compound 1 µM) | relative viability ([2]; first compound 0.01 µM) | relative viability ([2]; first compound 0.03162 µM) | relative viability ([2]; first compound 0.1 µM) | relative viability ([2]; first compound 0.3162 µM) | relative viability ([2]; first compound 1 µM) | relative viability ([3]; first compound 0.01 µM) | relative viability ([3]; first compound 0.03162 µM) | relative viability ([3]; first compound 0.1 µM) | relative viability ([3]; first compound 0.3162 µM) | relative viability ([3]; first compound 1 µM) | relative viability ([4]; first compound 0.01 µM) | relative viability ([4]; first compound 0.03162 µM) | relative viability ([4]; first compound 0.1 µM) | relative viability ([4]; first compound 0.3162 µM) | relative viability ([4]; first compound 1 µM)
NCI-H647 | 0.315 | 0.283 | 0.423 | 0.257 | 0.325 | 0.46 | 0.676 | 0.629 | 0.623 | 0.533 | 0.799 | 0.888 | 0.457 | 0.0877 | 0.087 | 1.11 | 0.737 | 0.104 | 0.0701 | 0.129
NCI-H650 | 0.738 | 0.778 | 0.713 | 0.661 | 0.796 | 0.441 | 0.457 | 0.454 | 0.381 | 0.486 | 0.73 | 0.563 | 0.233 | 0.19 | 0.126 | 0.882 | 0.85 | 0.166 | 0.214 | 0.151
NCI-H661 | 0.351 | 0.351 | 0.35 | 0.386 | 0.36 | 0.278 | 0.255 | 0.282 | 0.279 | 0.245 | 0.959 | 0.868 | 0.727 | 0.191 | 0.257 | 0.498 | 0.543 | 0.398 | 0.224 | 0.179
NCI-H727 | 0.641 | 0.616 | 0.545 | 0.539 | 0.649 | 0.49 | 0.435 | 0.481 | 0.411 | 0.672 | 0.807 | 0.833 | 0.656 | 0.267 | 0.239 | 0.972 | 0.853 | 0.512 | 0.268 | 0.242
NCI-H838 | 0.27 | 0.248 | 0.278 | 0.274 | 0.288 | 0.532 | 0.585 | 0.657 | 0.629 | 0.556 | 0.878 | 0.824 | 0.16 | 0.115 | 0.111 | 1.04 | 0.877 | 0.155 | 0.101 | 0.133
NCI-H1355 | 0.534 | 0.582 | 0.605 | 0.543 | 0.609 | 0.408 | 0.458 | 0.455 | 0.45 | 0.456 | 1.21 | 1.21 | 0.874 | 0.303 | 0.184 | 0.996 | 0.976 | 0.62 | 0.194 | 0.183
NCI-H1437 | 0.393 | 0.469 | 0.391 | 0.361 | 0.422 | 0.312 | 0.288 | 0.297 | 0.293 | 0.333 | 0.543 | 0.463 | 0.416 | 0.136 | 0.089 | 0.784 | 0.718 | 0.237 | 0.116 | 0.122
NCI-H1650 | 0.397 | 0.444 | 0.429 | 0.501 | 0.386 | 0.361 | 0.374 | 0.468 | 0.349 | 0.396 | 0.198 | 0.195 | 0.18 | 0.18 | 0.171 | 0.775 | 0.649 | 0.176 | 0.151 | 0.124
NCI-H1651 | 0.632 | 0.919 | 0.661 | 0.388 | 0.759 | 0.377 | 0.314 | 0.314 | 0.307 | 0.318 | 0.898 | 0.98 | 0.894 | 0.583 | 0.11 | 0.754 | 0.8 | 0.118 | 0.0889 | 0.0915
NCI-H1666 | 0.668 | 0.674 | 0.525 | 0.546 | 0.666 | 0.509 | 0.581 | 0.577 | 0.584 | 0.583 | 0.681 | 0.874 | 0.332 | 0.251 | 0.308 | 0.779 | 0.582 | 0.29 | 0.231 | 0.262
NCI-H1734 | 0.29 | 0.271 | 0.28 | 0.261 | 0.287 | 0.374 | 0.38 | 0.379 | 0.427 | 0.425 | 0.84 | 0.82 | 0.226 | 0.154 | 0.156 | 1.04 | 0.81 | 0.427 | 0.205 | 0.206
NCI-H1755 | 0.669 | 0.663 | 0.526 | 0.552 | 0.653 | 0.605 | 0.634 | 0.575 | 0.647 | 0.654 | 0.9 | 0.891 | 0.355 | 0.308 | 0.262 | 0.968 | 0.982 | 0.498 | 0.204 | 0.272
NCI-H1915 | 0.479 | 0.455 | 0.47 | 0.418 | 0.482 | 0.363 | 0.39 | 0.363 | 0.34 | 0.357 | 1.02 | 0.965 | 0.613 | 0.439 | 0.0752 | 0.882 | 0.965 | 0.752 | 0.62 | 0.0794
NCI-H1975 | 0.731 | 0.893 | 0.673 | 0.665 | 0.912 | 0.398 | 0.424 | 0.395 | 0.43 | 0.437 | 0.318 | 0.248 | 0.243 | 0.144 | 0.117 | 0.853 | 0.622 | 0.421 | 0.153 | 0.175
NCI-H1993 | 0.594 | 0.633 | 0.545 | 0.499 | 0.627 | 0.55 | 0.49 | 0.515 | 0.553 | 0.521 | 1.2 | 1 | 0.536 | 0.696 | 0.646 | 0.81 | 0.828 | 0.533 | 0.566 | 0.555
NCI-H2009 | 0.707 | 0.766 | 0.807 | 0.669 | 0.841 | 0.491 | 0.513 | 0.446 | 0.462 | 0.477 | 1.02 | 0.916 | 0.413 | 0.156 | 0.108 | 0.869 | 0.64 | 0.101 | 0.158 | 0.0981
